Measurements published in patent US11452727B2, “Combination therapy for treating cancer” (Epizyme, Inc., priority 2017, dated 2022).

Columns and labels:
Assay in all cases: In vitro combination study with tazemetostat, cell proliferation (Cell Titer Glo)
NCI-H460 = conditions: 7 days tazemetostat pre-treatment, 6 days co-treatment with second agent
NCI-H1793 = conditions: 7 days tazemetostat pre-treatment, 6 days co-treatment with second agent
Protocol: (§1) Initial proliferation studies were performed to determine the IC50 of tazemetostat in each cell line. For the screen, tazemetostat was used at concentrations bracketed around the IC50 value. If 50% inhibitory concentration was not reached then tazemetostat was tested starting at 10 μM.
(§2) In order to study the effect of dual combination of tazemetostat and a second agent on cell proliferation, cells in log-linear phase growth rate were pre-treated with various concentrations of tazemetostat or DMSO for 7 days in flasks, plated in 384-well plates in the absence of compounds and co-treated on day 8 with tazemetostat or DMSO and the second agent serially diluted for additional 6 days (as depicted in FIG. 1). On day 15, plates were developed for endpoint analysis using Cell Titer Glo to measure ATP content, which was used as an indicator of cell viability. DMSO concentration was kept constant throughout the assay at 0.15% v/v.
(§3) NCI-H1573 was cultured in DMEM: F12 Medium containing the following components: 0.02 mg/ml insulin, 0.01 mg/ml transferrin, 25 nM sodium selenite, 50 nM Hydrocortisone, 1 ng/ml Epidermal Growth Factor, 0.01 mM ethanolamine, 0.01 mM phosphorylethanolamine, 100 pM triiodothyronine, 0.5% (w/v) bovine serum albumin, 0.5 mM sodium pyruvate, 4.5 mM L-glutamine and 1% v/v Pen/Strep.

NCI-H1299 = conditions: 7 days tazemetostat pre-treatment, 6 days co-treatment with second agent
Protocol: as §1, §2

NCI-H1703 = conditions: 7 days tazemetostat pre-treatment, 6 days co-treatment with second agent
Protocol: as §1, §2

NCI-H522 = conditions: 7 days tazemetostat pre-treatment, 6 days co-treatment with second agent
Protocol: as §1, §2

HCC827 = conditions: 7 days tazemetostat pre-treatment, 6 days co-treatment with second agent
Calu-3 = conditions: 7 days tazemetostat pre-treatment, 6 days co-treatment with second agent
NCI-H2030 = conditions: 7 days tazemetostat pre-treatment, 6 days co-treatment with second agent
Protocol: as §1, §2

A427 = conditions: A427; 7 days tazemetostat pre-treatment, 6 days co-treatment with second agent
NCI-H1993 = conditions: 7 days tazemetostat pre-treatment, 6 days co-treatment with second agent
NCI-H1573 = conditions: 7 days tazemetostat pre-treatment, 6 days co-treatment with second agent
Protocol: as §1, §2, §3

NCI-H661 = conditions: 7 days tazemetostat pre-treatment, 6 days co-treatment with second agent
Protocol: as §1, §2
All cell lines were obtained from American Type Culture Collection (ATCC; Rockville, Md.). […] A427, Calu-3, Calu-6 cell lines were cultured in EMEM+10% Fetal bovine serum (FBS)+1% v/v Penicillin/Streptomycin (P/S).

NCI-H2110 = conditions: 7 days tazemetostat pre-treatment, 6 days co-treatment with second agent
Protocol: as §1, §2

NCI-H838 = conditions: 7 days tazemetostat pre-treatment, 6 days co-treatment with second agent
A549 = conditions: 7 days tazemetostat pre-treatment, 6 days co-treatment with second agent
Calu-6 = conditions: 7 days tazemetostat pre-treatment, 6 days co-treatment with second agent
NCI-H23 = conditions: 7 days tazemetostat pre-treatment, 6 days co-treatment with second agent
NCI-H2122 = conditions: 7 days tazemetostat pre-treatment, 6 days co-treatment with second agent

O=C(CCCCCCC(=O)Nc1ccccc1)NO [Vorinostat, vorinostat]
combinatorial effect with tazemetostat (Loewe volume class) (NCI-H460): Syn. (Loewe volumes greater than 1 denoted “synergy”) | combinatorial effect with tazemetostat (Loewe volume class) (NCI-H1793): Syn. (Loewe volumes greater than 1 denoted “synergy”) | combinatorial effect with tazemetostat (Loewe volume class) (NCI-H1299): Add. (A value between −1 and 1 denoted “additivity”) | combinatorial effect with tazemetostat (Loewe volume class) (NCI-H1703): Syn. (Loewe volumes greater than 1 denoted “synergy”) | combinatorial effect with tazemetostat (Loewe volume class) (NCI-H522): Syn. (Loewe volumes greater than 1 denoted “synergy”) | combinatorial effect with tazemetostat (Loewe volume class) (HCC827): Add. (A value between −1 and 1 denoted “additivity”) | combinatorial effect with tazemetostat (Loewe volume class) (Calu-3): Add. (A value between −1 and 1 denoted “additivity”) | combinatorial effect with tazemetostat (Loewe volume class) (NCI-H2030): Syn. (Loewe volumes greater than 1 denoted “synergy”) | combinatorial effect with tazemetostat (Loewe volume class) (A427): Syn. (Loewe volumes greater than 1 denoted “synergy”) | combinatorial effect with tazemetostat (Loewe volume class) (NCI-H1993): Add. (A value between −1 and 1 denoted “additivity”) | combinatorial effect with tazemetostat (Loewe volume class) (NCI-H1573): Syn. (Loewe volumes greater than 1 denoted “synergy”) | combinatorial effect with tazemetostat (Loewe volume class) (NCI-H661): Add. (A value between −1 and 1 denoted “additivity”) | combinatorial effect with tazemetostat (Loewe volume class) (NCI-H2110): Add. (A value between −1 and 1 denoted “additivity”) | combinatorial effect with tazemetostat (Loewe volume class) (NCI-H838): Add. (A value between −1 and 1 denoted “additivity”) | combinatorial effect with tazemetostat (Loewe volume class) (A549): Add. (A value between −1 and 1 denoted “additivity”) | combinatorial effect with tazemetostat (Loewe volume class) (Calu-6): Syn. (Loewe volumes greater than 1 denoted “synergy”) | combinatorial effect with tazemetostat (Loewe volume class) (NCI-H23): Syn. (Loewe volumes greater than 1 denoted “synergy”) | combinatorial effect with tazemetostat (Loewe volume class) (NCI-H2122): Add. (A value between −1 and 1 denoted “additivity”)
